The text below walks through data of patent publication US5217990A, “Use of macrolactones as anti-allergics” (Boehringer Mannheim GmbH, priority 1989, dated 1993).

In test [1] the test system is peripheral human leukocytes. The test is described as follows: Inhibition of anti-IgE-induced histamine liberation from peripheral human leukocytes. The test is classed as cell-based. The source says: (§1) For the detection of the anti-allergic action, there was used the inhibition of the proteinase liberation from peripheral human leukocytes induced by anti-IgE antibodies (Wilhelmset et al. XII Congress Europ. Acad. Allergology Clin. Immunology, Rome, Sep. 25--3), 1983, as well as DE-Al-34 46 714) or of the histamine liberation in an analogous process according to a further development of the method of R. P. Siraganian and W. A. Hook (Manual of Clinical Immunology, 2nd edition, 1980, pub. N. R. Rose and H. Friedman, Am. Soc. for Microbiology, pages 808 to 821).
(§2) Description of the Test System for the Testing for Mediator Liberation Inhibition from Human Leukocytes in Vitro
(§3) The liberation of proteinase on isolated human leukocytes is initiated by stimulation with anti-IgE antibodies (IgE-mediated mediator liberation from basophilic granulocytes). The intensity of this liberation reaction is determined by substrate addition (chromozyme TH) and photometric measurement in that the colour intensity of the samples±inhibitor addition are compared.
(§4) Buffy-coat cells=concentrated cell suspension from blood preserve.
(§5) In the following Table I are reproduced the inhibition values of the anti-IgE-induced liberation of histamine and proteinase from peripheral human leukocytes. As comparison substance, there was used the known degranulation inhibitor theophylline.

Test [2] has as its system lettuce seeds (Lactuca sativa). Particulars: cited from earlier work.
Test [3] deals with guinea pig lung parenchyma strips. The test can be described thus: Inhibition of the antigen-caused constriction of passively sensitised guinea pig lung parenchyma strips in vitro (organ bath). Set-up: key to R = relaxation: R: relaxation. The settings on record: for inhibition at 40 µg/mL / inhibition at 10 µg/mL: Cavia porcellus. How it is done:
As further detection for the anti-allergic action, there was investigated the inhibition of the antigen-caused constriction of passive sensitised guinea pig lung parenchyma strips in vitro.
Inhibition of the Antigen-Caused Construction of Passively Sensitised Guinea Pig Lung Parenchyma Strips in Vitro (Organ Bath)
For the in vitro investigation of the compounds according to the invention, there was measured the inhibition of the antigen-caused constriction on passively sensitised guinea pig lung parenchyma strips, as described in the following.
Pirbright white guinea pigs were stunned by neck blow and exsanguinated. The lungs were rinsed in situ substantially free of blood with Krebs buffer, pH 7.4.
Subsequently, the lung was removed, cut up into strips (about 20×4×4 mm) and the strips passively sensitised for 1 hour at room temperature with a 1:50 dilution of a homologous anti-ovalbumin antiserum and then washed with Krebs buffer 1×.
The antiserum had been previously produced in guinea pigs of the same strain according to Davies G. E., T. P. Johnstone (Quantitative studies on anaphylaxis in guinea pigs passively sensitised with homologous antibody; Inter. Arch. 41, 648-654 (1971)) by repeated injection of ovalbumin (2×crystallised) with the addition of complete Freund's adjuvant.
Up to its use, the antiserum was stored undiluted at -18° C.
Subsequently, the lung strips were suspended individually in 10 ml. waterbaths with a prestressing of 1.2 g on an isometric measurement recorder.
Thereafter, the waterbaths were filled with Krebs buffer and continuously gassed at 37° C. with O2 (95%) and CO2 (5%).
The constructions of the lung strips were recorded on a disc via an amplifier.
After 30 minutes acclimatisation phase, histamine control spasms were produced for the recognition of the reaction ability of the organ pieces, washed, subsequently the test substance pre-incubated for 20 minutes at 37° C. and thereafter the ovalbumin-caused constriction initiated.
The inhibition actions of the compounds according to the invention were expressed as percentage reduction of the constriction amplitude of the "samples with test substance" in comparison with the "untreated control constrictions".

For test [4], the system named is peripheral human leukocytes. The test is described as follows: Inhibition of anti-IgE-induced proteinase liberation from peripheral human leukocytes. It is filed as cell-based.
Description: as §1, §2, §3, §4, §5

The test system of a further test is plant growth. The settings on record: cited from earlier work.
Setting [5] is: substance 10.00 mcg/ml, A = histamine 1.0 mcg/ml.
[6] abbreviates: substance 10.00 mcg/ml, B = ovalbumin 0.1 mcg/ml.
The mark [7] stands for this setting: substance 10.00 mcg/ml, C = glucose 1.16 %.
The mark [8] stands for this setting: substance 10.00 mcg/ml, D = ovalbumin 1.0 mcg/ml.
The mark [9] stands for this setting: substance 40.00 mcg/ml, A = histamine 1.0 mcg/ml.
Setting [10] is: substance 40.00 mcg/ml, B = ovalbumin 0.1 mcg/ml.
The mark [11] stands for this setting: substance 40.00 mcg/ml, C = glucose 1.16 %.
The mark [12] stands for this setting: substance 40.00 mcg/ml, D = ovalbumin 1.0 mcg/ml.
Where [13] appears, read: Homo sapiens, Leukocyte, conc. 2 μg/ml.
Setting [14] is: Homo sapiens, Leukocyte, conc. 10 μg/ml.
[15] abbreviates: substance 40.00 mcg/ml, A = histamine 1.0 mcg/ml, read-out: Inhibition of constriction (percentage reduction of the constriction amplitude), spasmogen A.
The mark [16] stands for this setting: substance 40.00 mcg/ml, B = ovalbumin 0.1 mcg/ml, read-out: Inhibition of constriction (percentage reduction of the constriction amplitude), spasmogen B.
[17] abbreviates: substance 40.00 mcg/ml, C = glucose 1.16 %, read-out: Inhibition of constriction (percentage reduction of the constriction amplitude), spasmogen C.
Setting [18] is: substance 40.00 mcg/ml, D = ovalbumin 1.0 mcg/ml, read-out: Inhibition of constriction (percentage reduction of the constriction amplitude), spasmogen D.
[19] abbreviates: substance 10.00 mcg/ml, A = histamine 1.0 mcg/ml, read-out: Inhibition of constriction (percentage reduction of the constriction amplitude), spasmogen A.
Where [20] appears, read: substance 10.00 mcg/ml, B = ovalbumin 0.1 mcg/ml, read-out: Inhibition of constriction (percentage reduction of the constriction amplitude), spasmogen B.
Setting [21] is: substance 10.00 mcg/ml, C = glucose 1.16 %, read-out: Inhibition of constriction (percentage reduction of the constriction amplitude), spasmogen C.
[22] abbreviates: substance 10.00 mcg/ml, D = ovalbumin 1.0 mcg/ml, read-out: Inhibition of constriction (percentage reduction of the constriction amplitude), spasmogen D.
Where [23] appears, read: Homo sapiens, Leukocyte, conc. 90 μg/ml.

Read-outs that look alike come from different tables or passages of the source.

As usually defined, the inhibition is the relative decrease from the control value, in per cent.

Turning to `C[C@@H]1CCCCC[C@H](O)[C@H](O)/C=C/C(=O)O1` [cladospolide A], the “% inhibition histamine” value stood at 8% in test [1] (conc. 2 μg/ml) and 44% in test [1] (conc. 10 μg/ml). In test [2], the “action on the root growth of lettuce seeds” value is listed as “weakly inhibitingly”. In addition, the “Inhibition of constriction (percentage reduction of the constriction amplitude), spasmogen A” value in test [3] (setting [5]) was -5%; in test [3] (setting [9]), 16%. The “Inhibition of constriction (percentage reduction of the constriction amplitude), spasmogen B” value in test [3] (setting [6]) is reported as -50%; in test [3] (setting [10]), 34%. Also, the “Inhibition of constriction (percentage reduction of the constriction amplitude), spasmogen C” value in test [3] (setting [7]) is recorded as -85%; in test [3] (setting [11]), 33%. Also, the “Inhibition of constriction (percentage reduction of the constriction amplitude), spasmogen D” value in test [3] (setting [8]) was -76%; in test [3] (setting [12]), 24%. For the same molecule, the results for the “% inhibition proteinase” value in test [4] (conc. 2 μg/ml) and in test [4] (conc. 10 μg/ml) were 5% and 46%, respectively.
As for `C[C@H]1CCCCC[C@H](O)[C@@H](O)/C=C\C(=O)O1` [cladospolide B], the “action on the root growth of lettuce seeds” value in test [2] is “promotingly”.
Regarding `CC(=O)OC1C=CC(=O)OC(C)CCCCCC1OC(C)=O` (stereo not drawn) [diacetylcladospolide A, Diacetylcladospolide A], the inhibition at 2 µg/mL in test [1] (setting [13]) was 17%; in test [4] (setting [13]) it was 14%. Moreover, the figures for the inhibition at 10 µg/mL in test [1] (setting [14]) and in test [4] (setting [14]) were 92% and 96%, respectively. Besides, the inhibition at 40 µg/mL stood at 6% in test [3] (setting [15]), 44% in test [3] (setting [16]), 45% in test [3] (setting [17]) and 46% in test [3] (setting [18]).
With `CC1CCCCCCC(=O)/C=C/C(=O)O1` (stereo not drawn) [patulolide A], the values for the inhibition at 2 µg/mL in test [1] (setting [13]) and in test [4] (setting [13]) were 44% and 46%, respectively. Moreover, the inhibition at 10 µg/mL in test [1] (setting [14]) turned out to be 100%; in test [3] (setting [19]), 23%; in test [3] (setting [20]) it was 35%; in test [3] (setting [21]) it was 35%; in test [3] (setting [22]), 35%; in test [4] (setting [14]), 99%. Besides, the plant growth inhibition entry in the test on plant growth is given as “plant growth inhibiting”. The inhibition at 40 µg/mL in test [3] (setting [15]) worked out at 21%; in test [3] (setting [16]), 51%; in test [3] (setting [17]), 53%; in test [3] (setting [18]), 30%.
With `CC1CCCCCCC(=O)/C=C\C(=O)O1` (stereo not drawn) [patulolide B], the inhibition at 2 µg/mL in test [1] (setting [13]) was 57%; in test [4] (setting [13]), 63%. Further, the inhibition at 10 µg/mL worked out at 100% in test [1] (setting [14]); 5% in test [3] (setting [19]); 54% in test [3] (setting [20]); 47% in test [3] (setting [21]); 51% in test [3] (setting [22]); 99% in test [4] (setting [14]). Besides, in the test with plant growth, the plant growth inhibition entry is on record as “plant growth inhibiting”. Besides, the inhibition at 40 µg/mL in test [3] (setting [15]) came to 3%; in test [3] (setting [16]), 95%; in test [3] (setting [17]), 93%; in test [3] (setting [18]) it was 93%.
Consider `C[C@@H]1CCCCCC[C@H](O)/C=C\C(=O)O1` [patulolide C], for which, in the test with plant growth, the plant growth inhibition entry is given as “plant growth inhibiting”. The “Inhibition of constriction (percentage reduction of the constriction amplitude), spasmogen A” value in test [3] (setting [5]) is listed as -38%; in test [3] (setting [9]) it was -24%. For the same molecule, the “Inhibition of constriction (percentage reduction of the constriction amplitude), spasmogen B” value in test [3] (setting [6]) was -35%; in test [3] (setting [10]), -40%. The “Inhibition of constriction (percentage reduction of the constriction amplitude), spasmogen C” value was -98% in test [3] (setting [7]) and -36% in test [3] (setting [11]). The “Inhibition of constriction (percentage reduction of the constriction amplitude), spasmogen D” value is -26% in test [3] (setting [8]) and -33% in test [3] (setting [12]). Moreover, the “R = relaxation” value in test [3] (substance 40.00 mcg/ml) was “R”.
Consider `Cn1c(=O)c2[nH]cnc2n(C)c1=O` [theophylline, reference compound], for which the inhibition at 90 µg/mL in test [1] (setting [23]) came to 72%; in test [4] (setting [23]), 70%.
